Source: patent publication US20260116910A1, “POLYCYCLIC COMPOUNDS AND METHODS THEREOF” (HEPAITECH (BEIJING) BIOPHARMA TECHNOLOGY CO., LTD., priority 2021, published 2026)
Where two headings read alike, the source gives them in different places.

How the values were obtained:
[1] = target: T1, human FXR (NR1H4) (Homo sapiens, UniProt Q96RI1); experiment: Human FXR (NR1H4) agonist assessment, FXRE-NanoLuc reporter in HEK293T cells; format: cell-based; conditions: for EC50: read-out: EC50
T1 sequence (Q96RI1 1-476 isoform Q96RI1-1): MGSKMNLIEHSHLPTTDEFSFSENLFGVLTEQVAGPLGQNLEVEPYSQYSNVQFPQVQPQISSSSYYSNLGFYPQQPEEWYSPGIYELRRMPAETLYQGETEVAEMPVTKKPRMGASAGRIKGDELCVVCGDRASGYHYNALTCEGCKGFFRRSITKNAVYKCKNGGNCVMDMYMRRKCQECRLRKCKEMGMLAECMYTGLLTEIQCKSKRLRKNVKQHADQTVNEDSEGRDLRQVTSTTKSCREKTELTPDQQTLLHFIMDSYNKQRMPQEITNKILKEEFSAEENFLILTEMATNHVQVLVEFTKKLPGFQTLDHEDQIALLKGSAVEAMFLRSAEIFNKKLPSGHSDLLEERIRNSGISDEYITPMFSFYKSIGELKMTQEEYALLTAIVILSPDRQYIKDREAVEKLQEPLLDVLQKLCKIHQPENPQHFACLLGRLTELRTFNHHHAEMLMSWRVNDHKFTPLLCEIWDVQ
Procedure, shortened: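 Read-out was NanoLuc luminescence in culture medium, measured 5 min after adding coelenterazine. Cells were HEK293T stably carrying human FXR and an FXRE reporter, exposed to compound for 24 hr at 37 °C. Vehicle was 0.01% DMSO. EC50 was obtained from sigmoid fits of gradient dilutions.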

[2] = target: MRGPRX4 (Homo sapiens, UniProt Q96LA9); experiment: MRGPRX4 activation, Fluo-8 Ca2+ FLIPR assay in HEK293T cells stably expressing MRGPRX4; format: cell-based; parameters: key to MRGPRX4 activation, Average / MRGPRX4 activation, Ave.: fluorescence change dF/F0; conditions: for EC50: MRGPRX4 activation, Ca2+ fluorescence, no activation in tested range reported as III, read-out: Activity (EC50 μM)
MRGPRX4, sequence (Q96LA9 whole entry): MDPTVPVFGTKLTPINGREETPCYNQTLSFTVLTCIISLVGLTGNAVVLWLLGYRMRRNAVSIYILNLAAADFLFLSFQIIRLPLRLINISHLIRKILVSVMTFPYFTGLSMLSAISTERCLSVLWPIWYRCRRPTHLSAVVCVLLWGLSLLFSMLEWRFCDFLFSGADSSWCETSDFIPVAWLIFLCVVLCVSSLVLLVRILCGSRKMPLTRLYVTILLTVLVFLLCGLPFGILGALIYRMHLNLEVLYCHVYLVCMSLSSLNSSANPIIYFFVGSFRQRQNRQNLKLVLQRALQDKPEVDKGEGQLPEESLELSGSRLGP
Procedure, shortened: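 Response measured as dF/F0: 30 s baseline, then 150 s after compound addition on FLIPR Tetra, in HHBS after 40-60 min room-temperature loading with 2 μM Fluo-8 AM.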

[3] = FXR activation, HEK293T FXRE-NanoLuc reporter, 24 hr

SMILES	Efficacy (maximum measured induction of NanoLuc, normalized to CDCA set as 100%) [1, 3]	EC50 [1, 3]	MRGPRX4 activation, Average ([2]; E3-9, Conc. (Log[M]) −4.0)	MRGPRX4 activation, Average ([2]; E3-9, Conc. (Log[M]) −4.5)	MRGPRX4 activation, Average ([2]; E3-9, Conc. (Log[M]) −5.0)	MRGPRX4 activation, Average ([2]; E3-9, Conc. (Log[M]) −5.4)	MRGPRX4 activation, Average ([2]; E3-9, Conc. (Log[M]) −5.9)	MRGPRX4 activation, Average ([2]; E3-9, Conc. (Log[M]) −6.4)	MRGPRX4 activation, Average ([2]; E3-9, Conc. (Log[M]) −6.9)	MRGPRX4 activation, Average ([2]; E3-9, Conc. (Log[M]) −7.3)	MRGPRX4 activation, Average ([2]; E3-9, Conc. (Log[M]) −7.8)	MRGPRX4 activation, Average ([2]; E3-9, Conc. (Log[M]) −8.3)	EC50 [2]	further results
CC[C@H]1[C@@H](O)[C@@H]2[C@H](CC[C@]3(C)[C@@H]([C@H](C)CCNC(=O)NS(=O)(=O)c4ccc(C(C)(C)CF)cc4)CC[C@@H]23)[C@@]2(C)CC[C@H](F)C[C@@H]12 [9-1]	B (300%<efficacy <=400%)	< 1 µM	0.019	0.021	0.012	0.018	0.014	0.019	0.016	0.016	0.012	0.018	> 100 µM	
CC[C@H]1[C@@H](O)[C@@H]2[C@H](CC[C@]3(C)[C@@H]([C@H](C)CCNC(=O)NS(=O)(=O)c4cc(F)ccc4F)CC[C@@H]23)[C@@]2(C)CC[C@H](F)C[C@@H]12 [9-2]	B (300%<efficacy <=400%)	< 1 µM	0.035	0.001	0.002	0.019	0.018	0.018	0.014	0.019	0.016	0.019	50 to 100 µM	MRGPRX4 activation, fluorescence change (dF/F0), Average ([2]; Conc. (Log[M]) −4): 0.655; MRGPRX4 activation, fluorescence change (dF/F0), Average ([2]; Conc. (Log[M]) −4.5): 0.162; MRGPRX4 activation, fluorescence change (dF/F0), Average ([2]; Conc. (Log[M]) −5): 0.011; MRGPRX4 activation, fluorescence change (dF/F0), Average ([2]; Conc. (Log[M]) −5.5): −0.068; MRGPRX4 activation, fluorescence change (dF/F0), Average ([2]; Conc. (Log[M]) −6): −0.030; MRGPRX4 activation, fluorescence change (dF/F0), Average ([2]; Conc. (Log[M]) −7): −0.029; MRGPRX4 activation, fluorescence change (dF/F0), Average ([2]; Conc. (Log[M]) −8): −0.035; MRGPRX4 activation, fluorescence change (dF/F0), Average ([2]; Conc. (Log[M]) −9): −0.072
CC[C@H]1[C@@H](O)[C@@H]2[C@H](CC[C@]3(C)[C@@H]([C@H](C)CCNC(=O)NS(=O)(=O)c4cc(F)cc(F)c4)CC[C@@H]23)[C@@]2(C)CC[C@H](F)C[C@@H]12 [9-3]	B (300%<efficacy <=400%)	< 1 µM	0.006	0.004	0.018	0.019	0.019	0.016	0.014	0.018	0.016	0.016	> 100 µM	
CC[C@H]1[C@@H](O)[C@@H]2[C@H](CC[C@]3(C)[C@@H]([C@H](C)CCNC(=O)NS(=O)(=O)c4cccs4)CC[C@@H]23)[C@@]2(C)CC[C@H](F)C[C@@H]12 [9-4]	C (100%<efficacy <=300%)	< 1 µM	−0.003	0.004	0.014	0.019	0.019	0.018	0.019	0.021	0.018	0.019	> 100 µM	
CC[C@H]1[C@@H](O)[C@H]2[C@@H]3CC[C@](C)([C@H](C)CCNC(=O)NS(=O)(=O)C[C@]45CCC(CC4=O)C5(C)C)[C@H]3CC[C@@H]2[C@@]2(C)CC[C@H](F)C[C@@H]12 [9-5]		< 1 µM	0.014	0.016	0.023	0.023	0.018	0.019	0.021	0.019	0.021	0.021	> 100 µM	Efficacy (maximum measured induction of NanoLuc, normalized to CDCA set as 100%) [1]: C (key: A: efficacy >400%; B: 300%<efficacy <=400%; C: 100%<efficacy <=300%; D: efficacy <=100%)
